# Laboratory results: patent US20100144853A1, “NOVEL COMBINED ADMINISTRATION” (priority 2008, published 2010)
# How the values were obtained:
# Assay type in all cases: in vitro ADME
# [1] = Stability of COMPOUND A in human intestinal fluids, Procedure D (in solution), fasted; details: fasted intestinal fluid
# Procedure: (§1) Procedure D (COMPOUND A and COMPOUND B in Solution):
# (§2) Fasted Intestinal Fluids: the fluids from 4 different subjects were collected with a naso-jejunal tube after fasting overnight and pooled.
# (§3) 5 mg of thioisobutyric acid S-(2-{[1-(2-ethyl-butyl)-cyclohexanecarbonyl]-amino}-phenyl)ester (COMPOUND A) were dissolved in 50 μL ethanol and 950 μL mixed micelles solution containing Soybean lecithin/Sodium glycocholate (158/97 mg/mL) in water were added.
# (§4) 3 mg of 1-(3-hexyl-4-oxo-oxetan-2-yl)tridecan-2-yl 2-formyl-amino-4-methyl-pentanoate (COMPOUND B) were dissolved in 1 mL of ethanol. 100 μL of this solution was diluted with 900 μL of FeSSIF concentrate (10×).
# (§5) 100 μL of drug solution (stock D) were mixed with 100 μL of esterase inhibitor solution (stock E) and 800 μL of pro-FaSSIF were added.
# (§6) 100 μL of premix (stock F) were mixed with 200 μL of drug solution (stock A).
# (§7) 200 μL of premix (stock F) were mixed with 100 μL of drug solution (stock A). 315 μL of intestinal fluids (fasted and stimulated) were pre-heated at 37° C. for about 5 min. At time zero, 35 μL of premix solutions were added, i.e. either stock A, stock G, stock H or stock F, to obtain 50 μg/mL of COMPOUND A and final concentrations of COMPOUND B of 0, 1, 2 or 3 μg/mL. The samples were incubated at 37° C. while gently stirring. The reaction was stopped after 2 min or after 10 min by dilution of 1 part of the reaction mixture with 3 parts of isopropanol and the resulting mixture was centrifuged for 5 min at 5′000 rpm. The supernatant was analyzed by HPLC.
# [2] = Stability of COMPOUND A in human intestinal fluids, Procedure D (in solution), stimulated; details: stimulated intestinal fluid
# Procedure: as §1
# (§8) Stimulated Intestinal Fluids: the fluids from 3 different subjects were collected after fasting overnight with a nasojejunal tube and pooled. For the stimulation, twenty minutes before the beginning of the collection, volunteers were provided with chewing-gums and were asked to chew over a 15 minutes period, maintaining the taste by replacing the sticks of gum approximately every 2 minutes.
# as §3, §4, §5, §6, §7
# [3] = Stability of COMPOUND A in human intestinal fluids, Procedure E (suspension, excess separated by centrifugation), stimulated; details: HIF-stimulated
# Procedure: as §8
# Procedure E (COMPOUND A and COMPOUND B in Suspension, Excess Compound Separated by Centrifugation):
# Stock J=COMPOUND B suspension (2 mg/mL)
# 100 μL of FeSSIF concentrate and 900 μL of pro-FeSSIF pH6.5 were added to 4 mg commercially available Orlistat formulation (Xenical®) containing 2 mg of lipase inhibitor 1-(3-hexyl-4-oxo-oxetan-2-yl)tridecan-2-yl 2-formyl-amino-4-methyl-pentanoate (COMPOUND B) in a vial and the formulation was dispersed by gently stirring during 15 min to obtain a fine homogenous suspension.
# 500 μL of freshly thawed intestinal fluids (fasted and stimulated state) were added to 1 mg of COMPOUND A in a 1 mL glass vial immediately followed by the addition of either 0, 10 or 20 μL of COMPOUND B suspension (stock J) corresponding to 0, 40 or 80 μg/mL of COMPOUND B. The amount of COMPOUND B was 0, 2% or 4% COMPOUND B relative to COMPOUND A. The mixture was incubated at 37° C. with gentle stirring. Samples of 90 μL were removed as function of time and centrifuged at 13′000 rpm (about 12′000×g) for 5 min. 50 μL of the supernatant was diluted with 150 μL isopropanol, centrifuged at 5′000 rpm for 5 min and the clear supernatant was analyzed by HPLC.
# [4] = Stability of COMPOUND A in human intestinal fluids, Procedure F (suspension, no separation of excess), first table; details: fasted HIF
# Procedure: as §2
# (§9) Procedure F (COMPOUND A and COMPOUND B in suspension, the degradation immediately stopped without separation of excess compound): Stock K=COMPOUND B suspension (0.5 mg/mL)
# (§10) Dilute 1 part of COMPOUND B suspension (stock J) with 3 parts of FeSSIF pH6.5 solution.
# (§11) 500 μL of freshly thawed intestinal fluids (fasted and stimulated state) were added to 1.2 mg of COMPOUND A in a 1 mL glass vial. The suspended compound was stirred for 15 min at 37° C. to obtain wetting and a homogenous suspension. In parallel, 4 glass vials were prepared with 20 μL of a COMPOUND B suspension at different concentrations. These concentrations were obtained by mixing FeSSIF pH6.5 and COMPOUND B suspension (stock K) in different ratios, respectively 1:[…], 1:1, 0:1 to obtain 0, 1, 2 and 4% related to COMPOUND A. At time zero, 100 μL of COMPOUND A suspension preincubated at 37° C. were added to the 20 μL COMPOUND B suspension. The mixture was incubated at 37° C. with gentle stirring. After 15 min and 60 min, the reaction was stopped by mixing a 50 μL sample with 150 μL isopropanol and centrifuged at 5′000 rpm during 5 min. The clear supernatant was analyzed for the hydrolysis product and its oxidized form by HPLC.
# [5] = Stability of COMPOUND A in human intestinal fluids, Procedure F (suspension, no separation of excess), second table; details: fasted HIF
# Procedure: as §8, §9, §10, §11
# [6] = COMPOUND B 0 μg/mL, 2 min, theoretical 50 μg/mL
# [7] = COMPOUND B 0 μg/mL (0%), T = 15 min
# [8] = COMPOUND B 0 μg/mL (0%), T = 60 min
# [9] = COMPOUND B 20 μg/mL (1%), T = 15 min
# [10] = COMPOUND B 20 μg/mL (1%), T = 60 min
# [11] = COMPOUND B 40 μg/mL (2%), T = 15 min
# [12] = COMPOUND B 40 μg/mL (2%), T = 60 min
# [13] = COMPOUND B 80 μg/mL (4%), T = 15 min
# [14] = COMPOUND B 80 μg/mL (4%), T = 60 min
compound,measurement,setting,value
"CCC(CC)CC1(C(=O)Nc2ccccc2SC(=O)C(C)C)CCCCC1 [COMPOUND A, thioisobutyric acid S-(2-{[1-(2-ethyl-butyl)-cyclohexanecarbonyl]-amino}-phenyl)ester]",Concentration of COMPOUND A,[1]; [6],0.48 µg/mL
same,Concentration of COMPOUND A,"[1]; COMPOUND B 0 μg/mL, 10 min",0.48 µg/mL
same,Concentration of COMPOUND A,"[1]; COMPOUND B 1 μg/mL, 2 min",18.00 µg/mL
same,Concentration of COMPOUND A,"[1]; COMPOUND B 1 μg/mL, 10 min",1.58 µg/mL
same,Concentration of COMPOUND A,"[1]; COMPOUND B 2 μg/mL, 2 min",36.91 µg/mL
same,Concentration of COMPOUND A,"[1]; COMPOUND B 2 μg/mL, 10 min",28.59 µg/mL
same,Concentration of COMPOUND A,"[1]; COMPOUND B 3 μg/mL, 2 min",43.72 µg/mL
same,Concentration of COMPOUND A,"[1]; COMPOUND B 3 μg/mL, 10 min",37.24 µg/mL
same,Concentration of COMPOUND A,[2]; [6],0.48 µg/mL
same,Concentration of COMPOUND A,"[2]; COMPOUND B 0 μg/mL, 10 min",0.48 µg/mL
same,Concentration of COMPOUND A,"[2]; COMPOUND B 1 μg/mL, 2 min",26.06 µg/mL
same,Concentration of COMPOUND A,"[2]; COMPOUND B 1 μg/mL, 10 min",2.76 µg/mL
same,Concentration of COMPOUND A,"[2]; COMPOUND B 2 μg/mL, 2 min",38.92 µg/mL
same,Concentration of COMPOUND A,"[2]; COMPOUND B 2 μg/mL, 10 min",24.93 µg/mL
same,Concentration of COMPOUND A,"[2]; COMPOUND B 3 μg/mL, 2 min",46.91 µg/mL
same,Concentration of COMPOUND A,"[2]; COMPOUND B 3 μg/mL, 10 min",40.48 µg/mL
same,Concentration of COMPOUND A,"[3]; with 40 μg/mL of COMPOUND B, 15 min",0.74 µg/mL
same,Concentration of COMPOUND A,"[3]; with 40 μg/mL of COMPOUND B, 30 min",0.55 µg/mL
same,Concentration of COMPOUND A,"[3]; with 40 μg/mL of COMPOUND B, 1 h",10.53 µg/mL
same,Concentration of COMPOUND A,"[3]; with 40 μg/mL of COMPOUND B, 2 h",32.71 µg/mL
same,Concentration of COMPOUND A,"[3]; with 40 μg/mL of COMPOUND B, 4 h",221.31 µg/mL
same,Concentration of COMPOUND A,"[3]; with 80 μg/mL of COMPOUND B, 15 min",1.00 µg/mL
same,Concentration of COMPOUND A,"[3]; with 80 μg/mL of COMPOUND B, 30 min",11.80 µg/mL
same,Concentration of COMPOUND A,"[3]; with 80 μg/mL of COMPOUND B, 1 h",64.63 µg/mL
same,Concentration of COMPOUND A,"[3]; with 80 μg/mL of COMPOUND B, 2 h",131.64 µg/mL
same,Concentration of COMPOUND A,"[3]; with 80 μg/mL of COMPOUND B, 4 h",171.25 µg/mL
same,Concentration of COMPOUND A,"[3]; without COMPOUND B, 15 min",3.09 µg/mL
same,Concentration of COMPOUND A,"[3]; without COMPOUND B, 30 min",0.52 µg/mL
same,Concentration of COMPOUND A,"[3]; without COMPOUND B, 1 h",0.62 µg/mL
same,Concentration of COMPOUND A,"[3]; without COMPOUND B, 2 h",0.82 µg/mL
same,Concentration of COMPOUND A,"[3]; without COMPOUND B, 4 h",1.31 µg/mL
same,Concentration of COMPOUND A,[4]; [7],1111.92 µg/mL
same,Concentration of COMPOUND A,[4]; [8],182.50 µg/mL
same,Concentration of COMPOUND A,[4]; [9],1299.01 µg/mL
same,Concentration of COMPOUND A,[4]; [10],718.26 µg/mL
same,Concentration of COMPOUND A,[4]; [11],1381.23 µg/mL
same,Concentration of COMPOUND A,[4]; [12],598.81 µg/mL
same,Concentration of COMPOUND A,[4]; [13],1728.95 µg/mL
same,Concentration of COMPOUND A,[4]; [14],826.93 µg/mL
same,Concentration of COMPOUND A,[5]; [7],1569.58 µg/mL
same,Concentration of COMPOUND A,[5]; [8],400.63 µg/mL
same,Concentration of COMPOUND A,[5]; [9],2034.38 µg/mL
same,Concentration of COMPOUND A,[5]; [10],1503.21 µg/mL
same,Concentration of COMPOUND A,[5]; [11],2163.01 µg/mL
same,Concentration of COMPOUND A,[5]; [12],1515.41 µg/mL
same,Concentration of COMPOUND A,[5]; [13],1945.50 µg/mL
same,Concentration of COMPOUND A,[5]; [14],1449.03 µg/mL
